From ChEMBL document CHEMBL2010651, “Discovery and hit-to-lead optimization of pyrrolopyrimidines as potent, state-dependent Na(v)1.7 antagonists” (Bioorg Med Chem Lett, 2012)
Values after ≈ are worked out from the molar mass of the structure shown.

Assay: Lipophilicity, log D of the compound at pH 7.4
Type: physicochemical
Conditions: buffer

Row | Structure (SMILES) | logD
1 | Cc1c(C)n(Cc2ccccc2)c2ncnc(OC3CCN(Cc4cscn4)CC3)c12 | 4.35
2 | Cc1cn(Cc2ccccc2)c2ncnc(OC3CCN(Cc4cscn4)CC3)c12 | 3.89
3 | Fc1cn(Cc2ccccc2)c2ncnc(OC3CCN(Cc4cscn4)CC3)c12 | 3.49
4 | Clc1cn(Cc2ccccc2)c2ncnc(OC3CCN(Cc4cscn4)CC3)c12 | 4.03
5 | c1ccc(Cn2ccc3c(OC4CCN(Cc5cscn5)CC4)ncnc32)cc1 | 3.44
6 | Cc1nc(OC2CCN(Cc3cscn3)CC2)c2ccn(Cc3ccccc3)c2n1 | 4.15
7 | FC(F)(F)c1nc(OC2CCN(Cc3cscn3)CC2)c2ccn(Cc3ccccc3)c2n1 | 5.1
8 | c1ccc(Cn2ncc3c(OC4CCN(Cc5cscn5)CC4)ncnc32)cc1 | 2.18
9 | c1ccc(Cn2cnc3c(OC4CCN(Cc5cscn5)CC4)ncnc32)cc1 | 2.28
10 | CC1(C)CN(Cc2ccccc2)c2ncnc(OC3CCN(Cc4cscn4)CC3)c21 | 3.94
11 | CC1(C)C(=O)N(Cc2ccccc2)c2ncnc(OC3CCN(Cc4cscn4)CC3)c21 | 2.39
12 | c1ccc(-n2ccc3c(OC4CCN(Cc5cscn5)CC4)ncnc32)cc1 | 3.3
13 | c1ccc(CCn2ccc3c(OC4CCN(Cc5cscn5)CC4)ncnc32)cc1 | 3.87
14 | c1nc(OC2CCN(Cc3cscn3)CC2)c2ccn(CC3CCCCC3)c2n1 | 4.32
15 | Fc1ccccc1Cn1ccc2c(OC3CCN(Cc4cscn4)CC3)ncnc21 | 3.49
16 | Fc1cccc(Cn2ccc3c(OC4CCN(Cc5cscn5)CC4)ncnc32)c1 | 3.49
17 | Fc1ccc(Cn2ccc3c(OC4CCN(Cc5cscn5)CC4)ncnc32)cc1 | 3.49
18 | Clc1cccc(Cn2ccc3c(OC4CCN(Cc5cscn5)CC4)ncnc32)c1 | 4.03
19 | Clc1ccc(Cn2ccc3c(OC4CCN(Cc5cscn5)CC4)ncnc32)cc1 | 4.03

Row | Structure (SMILES) | logD
20 | Cc1ccccc1Cn1ccc2c(OC3CCN(Cc4cscn4)CC3)ncnc21 | 3.9
21 | Cc1cccc(Cn2ccc3c(OC4CCN(Cc5cscn5)CC4)ncnc32)c1 | 3.9
22 | Cc1ccc(Cn2ccc3c(OC4CCN(Cc5cscn5)CC4)ncnc32)cc1 | 3.9
23 | FC(F)(F)c1ccccc1Cn1ccc2c(OC3CCN(Cc4cscn4)CC3)ncnc21 | 4.01
24 | FC(F)(F)c1cccc(Cn2ccc3c(OC4CCN(Cc5cscn5)CC4)ncnc32)c1 | 4.01
25 | FC(F)(F)c1ccc(Cn2ccc3c(OC4CCN(Cc5cscn5)CC4)ncnc32)cc1 | 4.01
26 | Fc1cccc(Cn2ccc3c(OC4CCN(Cc5cscn5)CC4)ncnc32)c1F | 3.45
27 | Fc1c(Cl)cccc1Cn1ccc2c(OC3CCN(Cc4cscn4)CC3)ncnc21 | 4.19
28 | Fc1c(Cn2ccc3c(OC4CCN(Cc5cscn5)CC4)ncnc32)cccc1C(F)(F)F | 4.08
29 | Fc1cccc(F)c1Cn1ccc2c(OC3CCN(Cc4cscn4)CC3)ncnc21 | 3.58
30 | c1ccc(Cn2ccc3c(OC4CCNCC4)ncnc32)cc1 | 1.24
31 | c1ccc(Cn2ccc3c(OC4CCN(c5ccccc5)CC4)ncnc32)cc1 | 5.31
32 | c1ccc(CN2CCC(Oc3ncnc4c3ccn4Cc3ccccc3)CC2)cc1 | 4.96
33 | O=C(c1cscn1)N1CCC(Oc2ncnc3c2ccn3Cc2ccccc2)CC1 | 3.07
34 | c1ccc(Cn2ccc3c(OC4CCN(Cc5cocn5)CC4)ncnc32)cc1 | 3.1
35 | c1ccc(Cn2ccc3c(OC4CCN(Cc5c[nH]cn5)CC4)ncnc32)cc1 | 2.35
36 | c1ccc(Cn2ccc3c(OC4CCN(Cc5ccn[nH]5)CC4)ncnc32)cc1 | 3.02
37 | c1ccc(Cn2ccc3c(OC4CCN(Cc5cn[nH]c5)CC4)ncnc32)cc1 | 3.16
38 | Cn1cc(CN2CCC(Oc3ncnc4c3ccn4Cc3ccccc3)CC2)cn1 | 3.01

Row | Structure (SMILES) | logD
39 | Cn1ccnc1CN1CCC(Oc2ncnc3c2ccn3Cc2ccccc2)CC1 | 2.93
40 | Cc1nc(CN2CCC(Oc3ncnc4c3ccn4Cc3ccccc3)CC2)cs1 | 4.1
41 | c1ccc(Cn2ccc3c(OC4CCN(Cc5nccs5)CC4)ncnc32)cc1 | 4.81
42 | c1ccc(Cn2ccc3c(OC4CCN(Cc5ccccn5)CC4)ncnc32)cc1 | 3.7
43 | c1ccc(Cn2ccc3c(OC4CCN(Cc5cccnc5)CC4)ncnc32)cc1 | 3.67
44 | c1ccc(Cn2ccc3c(OC4CCN(Cc5ccncc5)CC4)ncnc32)cc1 | 3.69
45 | Cc1cccc(CN2CCC(Oc3ncnc4c3ccn4Cc3ccccc3)CC2)n1 | 4.08
46 | Cc1ccc(CN2CCC(Oc3ncnc4c3ccn4Cc3ccccc3)CC2)nc1 | 4.15
47 | Cc1ccnc(CN2CCC(Oc3ncnc4c3ccn4Cc3ccccc3)CC2)c1 | 4.15
48 | Cc1cccnc1CN1CCC(Oc2ncnc3c2ccn3Cc2ccccc2)CC1 | 4.15
49 | Fc1cccc(CN2CCC(Oc3ncnc4c3ccn4Cc3ccccc3)CC2)n1 | 3.83
50 | Fc1ccc(CN2CCC(Oc3ncnc4c3ccn4Cc3ccccc3)CC2)nc1 | 3.76
51 | Fc1cccnc1CN1CCC(Oc2ncnc3c2ccn3Cc2ccccc2)CC1 | 3.77
52 | c1ccc(Cn2ccc3c(OC4CCN(Cc5cnccn5)CC4)ncnc32)cc1 | 2.71
53 | Fc1ccccc1Cn1ccc2c(OC3CCN(Cc4ccccn4)CC3)ncnc21 | 3.75
54 | Fc1cccc(Cn2ccc3c(OC4CCN(Cc5ccccn5)CC4)ncnc32)c1F | 3.71
55 | Fc1c(Cl)cccc1Cn1ccc2c(OC3CCN(Cc4ccccn4)CC3)ncnc21 | 4.46
56 | Fc1c(Cn2ccc3c(OC4CCN(Cc5ccccn5)CC4)ncnc32)cccc1C(F)(F)F | 4.35

Assay: Solubility in simulated intestinal fluid
Type: physicochemical
Conditions: not given

Row | Structure (SMILES) | solubility
57 | Cc1c(C)n(Cc2ccccc2)c2ncnc(OC3CCN(Cc4cscn4)CC3)c12 | 0.177 mg/mL (≈ 408 µM)

Assay: Solubility in phosphate buffered saline
Type: physicochemical
Conditions: not given

Row | Structure (SMILES) | solubility
58 | Cc1c(C)n(Cc2ccccc2)c2ncnc(OC3CCN(Cc4cscn4)CC3)c12 | 0.065 mg/mL (≈ 150 µM)

Assay: Solubility in 0.01 N HCl
Type: physicochemical
Conditions: not given

Row | Structure (SMILES) | solubility
59 | Cc1c(C)n(Cc2ccccc2)c2ncnc(OC3CCN(Cc4cscn4)CC3)c12 | > 0.2 mg/mL
